The values below come from publication PMC10287695, “Non-covalent inhibitors of thioredoxin glutathione reductase with schistosomicidal activity in vivo” (Nature Communications, 2023).

A word on the inhibition: it is the change of the read-out against control, counted positive when it falls. The term viability denotes a read-out of living cells in per cent, often relative to untreated cells. A lower viability goes with a greater loss of cells.

One series concerns the target T1, Human GR (Homo sapiens, UniProt P00390).
T1 construct: made in house
T1 sequence (P00390 44-522): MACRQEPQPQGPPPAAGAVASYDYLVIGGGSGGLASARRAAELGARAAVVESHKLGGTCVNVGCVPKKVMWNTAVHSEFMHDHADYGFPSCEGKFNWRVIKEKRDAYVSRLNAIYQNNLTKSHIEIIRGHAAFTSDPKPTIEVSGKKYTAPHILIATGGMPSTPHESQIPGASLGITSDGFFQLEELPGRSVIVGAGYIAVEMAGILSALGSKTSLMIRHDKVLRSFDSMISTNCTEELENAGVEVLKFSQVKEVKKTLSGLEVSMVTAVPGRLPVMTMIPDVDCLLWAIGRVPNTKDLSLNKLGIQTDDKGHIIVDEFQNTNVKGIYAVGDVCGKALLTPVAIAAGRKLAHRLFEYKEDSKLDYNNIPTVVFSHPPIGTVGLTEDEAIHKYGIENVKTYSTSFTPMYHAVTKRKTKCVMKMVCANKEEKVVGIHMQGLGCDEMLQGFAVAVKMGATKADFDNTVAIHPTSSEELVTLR
Kind of series: Human GR enzyme inhibition (GSSG reduction, NADPH oxidation). The conditions noted are these: for inhibition at 5 µM / inhibition at 15 µM / inhibition at 30 µM / inhibition at 66.7 µM: hGR; for inhibition at 5 µM: compound 5 µM; for inhibition at 15 µM: compound 15 µM; for inhibition at 15 µM / inhibition at 30 µM / inhibition at 66.7 µM: read-out: % inhibition; for inhibition at 30 µM: compound 30 µM; for inhibition at 66.7 µM: compound 66.7 µM. Type of series: biochemical.

A further series concerns the target T2, PfTrxR (Plasmodium falciparum, UniProt Q25861).
T2 construct: 6-His (N); made in house; host or cells: E. coli BL21 (DE3)
T2 sequence (Q25861 1-541): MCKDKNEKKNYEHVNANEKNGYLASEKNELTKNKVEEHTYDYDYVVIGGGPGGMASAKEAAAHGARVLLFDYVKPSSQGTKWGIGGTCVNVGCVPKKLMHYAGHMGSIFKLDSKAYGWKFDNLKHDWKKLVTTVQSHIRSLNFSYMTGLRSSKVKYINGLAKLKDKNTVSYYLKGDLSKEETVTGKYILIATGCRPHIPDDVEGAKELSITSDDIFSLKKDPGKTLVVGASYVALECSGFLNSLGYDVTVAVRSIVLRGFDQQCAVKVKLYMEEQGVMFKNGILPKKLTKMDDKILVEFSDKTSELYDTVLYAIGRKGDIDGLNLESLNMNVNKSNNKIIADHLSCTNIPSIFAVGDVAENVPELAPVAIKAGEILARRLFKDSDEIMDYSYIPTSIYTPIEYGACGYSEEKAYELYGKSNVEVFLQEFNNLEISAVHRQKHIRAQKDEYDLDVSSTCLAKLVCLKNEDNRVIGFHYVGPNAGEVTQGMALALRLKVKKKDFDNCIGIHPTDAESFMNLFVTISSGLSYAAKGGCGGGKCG
Kind of series: P. falciparum TrxR enzyme inhibition. The series is classed as biochemical. As for the experimental part: Recombinant TGR, human TrxR1, B. malayi (Bm)TrxR and human GR proteins were expressed and purified as described[20],[69],[79]. The codon optimized sequence for P. falciparum (PfTrxR, https://www.ncbi.nlm.nih.gov/protein/CAA60574.1/) with an N-terminal 6-His tag was synthesized and inserted into pET15b (GenScript) and expressed in BL21 (DE3) cells and purified as described for human GR[20]. TGR and TrxR enzyme inhibition assays were performed in triplicate at 25 °C as described[20] in 0.1 M potassium phosphate (pH 7.4), 10 mM EDTA, 100 µM NADPH and 0.01% Tween-20. TGR, human TrxR1 and BmTrxR (all at 4 nM) and PfTrxR (50 nM) were preincubated with the compounds for 15 min. The reaction was started with addition of an equal volume of DTNB (6 mM) and NADPH (100 µM) and the increase in A412 during the first 3 min was recorded. […] The reaction was preincubated for 15 min. Activity was initiated with the addition of 1 mM GSSG and 100 μM NADPH and initial rates of NADPH oxidation were monitored at 340 nm. The reactions were done in triplicate. The IC50 was calculated in GraphPad Prism.

The nature of series [1]: Cytotoxicity in mammalian cells (Cell Titer Glo). The conditions noted are these: African green monkey, Vero cells. Type of series: cell-based. Here is the method:
Following overnight incubation, formulated DMSO-compound stock solutions were diluted with DMEM at <1% DMSO final concentrations. […] Vero cells treated similarly with different concentrations of PZQ, MZM and AF (Cayman Chemicals) were used as positive controls.
On the technique in general: ATP-based viability assays read luminescence as a measure of living cells.

Like-named read-outs stand apart in the source and are kept apart here.

On to `C[C@@H]1[C@H]2C[C@@H](C[C@H]1NCc1nc3ccccc3n1C1CCCCCC1)C2(C)C` [Compound 8], for which, on Human GR, the “Human GR (inhibition at 66.7 µM)” value was “n.i”. On Human GR (15 minutes pre-incubation), the inhibition at 5 µM is -0.362%, the inhibition at 15 µM is -0.934%, the inhibition at 30 µM was -0.111% and the inhibition at 66.7 µM was -0.91%. Moreover, at Human GR (6 hours pre-incubation), the inhibition at 5 µM is -1.4%, the inhibition at 15 µM is -4.52%, the inhibition at 30 µM was -1.03% and the inhibition at 66.7 µM is 9.42%. For the same compound, at PfTrxR, the inhibition at 10 µM was -0.482%, the inhibition at 25 µM is -0.643% and the inhibition at 50 µM is -0.523%. This compound also displayed a viability at 24 h, 1 µM in series [1] (Conc. 1 µM) of 97%. The same compound yielded a viability at 24 h, 5 µM in series [1] (Conc. 5 µM) of 93.8%. The viability at 24 h, 10 µM in series [1] (Conc. 10 µM) amounted to 88.6%. In series [1] (Conc. 25 µM), the viability at 24 h, 25 µM was 69.7%. In addition, the viability at 24 h, 50 µM in series [1] (Conc. 50 µM) amounted to 44.6%. In series [1] (Conc. 100 µM), the viability at 24 h, 100 µM worked out at 4.99%.

With `Cc1oc(C2CCCCC2)nc1C(=O)N[C@@H]1C[C@@H]2C[C@H]([C@H]1C)C2(C)C` [Compound 7], the “Human GR (inhibition at 66.7 µM)” value on Human GR was “n.i”. At Human GR (15 minutes pre-incubation), the inhibition at 15 µM is -0.669%, the inhibition at 30 µM is -0.696% and the inhibition at 66.7 µM was -1.12%. Besides, at Human GR (6 hours pre-incubation), the inhibition at 15 µM is -0.918%, the inhibition at 30 µM was -2.19% and the inhibition at 66.7 µM was -0.656%. Moreover, on PfTrxR, the inhibition at 10 µM is -0.315%, the inhibition at 25 µM came out at 4.13% and the inhibition at 50 µM stood at 10.8%. For the same compound, the viability at 24 h, 5 µM in series [1] (Conc. 5 µM) stood at 92%. In series [1] (Conc. 10 µM), this compound registered a viability at 24 h, 10 µM of 91.8%. This compound also registered a viability at 24 h, 25 µM in series [1] (Conc. 25 µM) of 89.5%. In series [1] (Conc. 35 µM), this compound gave a viability at 24 h, 35 µM of 85.8%. The same compound had a viability at 24 h, 50 µM in series [1] (Conc. 50 µM) of 83.6%.

For the compound `CC1C(NCc2cn(C3OCC(O)C(O)C3O)c3ccccc23)CC2CC1C2(C)C` (stereo not shown) [Compound 9], on Human GR, the “Human GR (inhibition at 66.7 µM)” value was “n.i”. On Human GR (15 minutes pre-incubation), the inhibition at 15 µM was -0.142%, the inhibition at 30 µM was -2.5% and the inhibition at 66.7 µM was -1.69%. Also, on Human GR (6 hours pre-incubation), the inhibition at 15 µM is -0.844%, the inhibition at 30 µM is -1.45% and the inhibition at 66.7 µM was -3.11%. At PfTrxR, the inhibition at 10 µM stood at 6.78%, the inhibition at 25 µM is 8.79% and the inhibition at 50 µM was 16.2%. On PfTrxR (read-out: PfTrxR % inhibition at 50 µM), the inhibition at 50 µM was 16%. The same compound gave a viability at 24 h, 5 µM in series [1] (5 µM, relative to untreated control) of 92.7%. The viability at 24 h, 10 µM in series [1] (10 µM, relative to untreated control) is 90.7%. Besides, in series [1] (25 µM, relative to untreated control), the viability at 24 h, 25 µM turned out to be 89.9%. In series [1] (35 µM, relative to untreated control), this compound had a viability at 24 h, 35 µM of 89.6%. The viability at 24 h, 50 µM in series [1] (50 µM, relative to untreated control) turned out to be 83.5%.
